Measurements as given in ChEMBL document CHEMBL4507268 (2021).

Experiments:
Conditions in all cases: Compound concentration 1.0 uM
[1] = biological target: T1, Serine/threonine-protein kinase STK11 (Homo sapiens) (UniProt Q15831)
T1 sequence (whole entry): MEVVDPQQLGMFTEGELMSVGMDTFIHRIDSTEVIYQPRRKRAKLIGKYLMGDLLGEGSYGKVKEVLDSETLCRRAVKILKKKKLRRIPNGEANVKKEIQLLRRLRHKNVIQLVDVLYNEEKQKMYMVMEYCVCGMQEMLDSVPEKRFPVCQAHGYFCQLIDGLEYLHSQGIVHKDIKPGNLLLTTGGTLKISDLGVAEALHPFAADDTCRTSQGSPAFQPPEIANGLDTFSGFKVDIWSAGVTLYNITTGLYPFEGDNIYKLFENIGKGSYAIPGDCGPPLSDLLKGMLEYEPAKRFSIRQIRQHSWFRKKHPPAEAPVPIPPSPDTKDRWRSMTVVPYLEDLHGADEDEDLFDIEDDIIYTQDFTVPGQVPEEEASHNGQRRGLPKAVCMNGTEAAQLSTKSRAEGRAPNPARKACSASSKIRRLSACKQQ

[2] = biological target: Serine/threonine-protein kinase 32C (Homo sapiens) (UniProt Q86UX6)
[3] = biological target: T2, Protein kinase C epsilon type (Homo sapiens) (UniProt Q02156)
T2 sequence (whole entry): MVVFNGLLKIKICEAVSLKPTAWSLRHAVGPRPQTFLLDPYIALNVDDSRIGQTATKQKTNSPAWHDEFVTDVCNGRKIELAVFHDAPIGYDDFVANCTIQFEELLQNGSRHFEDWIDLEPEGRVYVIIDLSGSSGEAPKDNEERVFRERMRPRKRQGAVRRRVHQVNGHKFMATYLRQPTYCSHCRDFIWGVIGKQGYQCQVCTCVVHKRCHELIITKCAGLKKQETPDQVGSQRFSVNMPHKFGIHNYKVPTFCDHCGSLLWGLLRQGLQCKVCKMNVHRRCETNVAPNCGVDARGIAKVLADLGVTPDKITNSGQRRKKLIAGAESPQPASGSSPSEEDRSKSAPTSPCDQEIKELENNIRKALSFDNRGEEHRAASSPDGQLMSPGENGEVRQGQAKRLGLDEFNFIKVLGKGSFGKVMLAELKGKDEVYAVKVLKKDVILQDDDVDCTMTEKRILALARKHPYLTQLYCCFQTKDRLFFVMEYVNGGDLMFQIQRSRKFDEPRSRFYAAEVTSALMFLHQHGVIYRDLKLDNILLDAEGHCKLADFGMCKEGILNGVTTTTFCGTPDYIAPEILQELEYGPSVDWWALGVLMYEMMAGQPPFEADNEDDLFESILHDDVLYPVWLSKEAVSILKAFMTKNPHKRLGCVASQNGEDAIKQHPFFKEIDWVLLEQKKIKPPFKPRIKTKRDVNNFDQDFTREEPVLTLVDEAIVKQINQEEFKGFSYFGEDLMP

[4] = biological target: T3, Tyrosine-protein kinase ITK/TSK (Homo sapiens) (UniProt Q08881)
T3 sequence (whole entry): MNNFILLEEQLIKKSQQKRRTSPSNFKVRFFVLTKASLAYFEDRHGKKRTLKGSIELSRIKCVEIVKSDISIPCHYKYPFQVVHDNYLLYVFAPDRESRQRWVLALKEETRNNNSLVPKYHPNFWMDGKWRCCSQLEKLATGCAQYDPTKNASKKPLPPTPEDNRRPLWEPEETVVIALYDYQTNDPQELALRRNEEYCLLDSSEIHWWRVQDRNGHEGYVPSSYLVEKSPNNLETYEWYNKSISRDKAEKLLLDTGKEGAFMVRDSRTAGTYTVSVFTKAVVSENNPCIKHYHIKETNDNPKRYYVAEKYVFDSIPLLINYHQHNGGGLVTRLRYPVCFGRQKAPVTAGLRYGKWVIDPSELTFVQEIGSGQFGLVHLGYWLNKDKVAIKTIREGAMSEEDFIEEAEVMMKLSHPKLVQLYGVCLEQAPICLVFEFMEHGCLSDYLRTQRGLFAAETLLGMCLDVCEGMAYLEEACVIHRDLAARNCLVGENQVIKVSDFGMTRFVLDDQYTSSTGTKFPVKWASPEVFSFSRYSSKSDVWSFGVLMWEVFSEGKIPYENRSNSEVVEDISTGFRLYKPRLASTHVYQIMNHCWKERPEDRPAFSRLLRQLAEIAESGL

[5] = biological target: Tyrosine-protein kinase Blk (Homo sapiens) (UniProt P51451)

Measured: % residual kinase activity

Serine/threonine-protein kinase 32C (Homo sapiens), sequence (Q86UX6 whole entry): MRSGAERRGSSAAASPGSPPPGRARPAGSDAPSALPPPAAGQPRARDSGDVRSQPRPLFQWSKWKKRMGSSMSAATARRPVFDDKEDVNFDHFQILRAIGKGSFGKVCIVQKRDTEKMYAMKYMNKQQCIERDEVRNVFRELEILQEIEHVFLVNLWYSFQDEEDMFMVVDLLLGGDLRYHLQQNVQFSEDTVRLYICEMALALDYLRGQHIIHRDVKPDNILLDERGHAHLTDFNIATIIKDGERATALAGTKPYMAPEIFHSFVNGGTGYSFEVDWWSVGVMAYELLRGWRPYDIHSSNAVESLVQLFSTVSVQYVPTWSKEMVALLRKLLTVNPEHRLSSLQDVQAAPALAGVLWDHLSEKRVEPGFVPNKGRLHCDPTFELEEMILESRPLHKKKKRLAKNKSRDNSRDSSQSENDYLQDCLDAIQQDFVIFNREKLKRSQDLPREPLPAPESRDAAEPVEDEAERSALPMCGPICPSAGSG
Tyrosine-protein kinase Blk (Homo sapiens), sequence (P51451 2-505 limits assumed): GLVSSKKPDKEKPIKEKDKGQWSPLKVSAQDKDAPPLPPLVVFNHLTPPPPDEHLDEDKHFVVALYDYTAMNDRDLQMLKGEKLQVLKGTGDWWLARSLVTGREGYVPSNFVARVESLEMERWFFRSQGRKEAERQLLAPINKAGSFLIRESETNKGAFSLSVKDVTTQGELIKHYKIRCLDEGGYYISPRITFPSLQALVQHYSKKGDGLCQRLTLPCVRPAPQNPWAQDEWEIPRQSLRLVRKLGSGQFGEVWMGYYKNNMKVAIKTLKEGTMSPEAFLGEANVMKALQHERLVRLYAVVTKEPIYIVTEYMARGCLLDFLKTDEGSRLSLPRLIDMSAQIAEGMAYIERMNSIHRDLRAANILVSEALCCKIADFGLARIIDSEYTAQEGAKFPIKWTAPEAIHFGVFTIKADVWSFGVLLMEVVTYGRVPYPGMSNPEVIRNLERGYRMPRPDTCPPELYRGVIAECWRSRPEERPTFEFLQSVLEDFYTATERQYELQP

CN1CCN(c2cnc3c(C4CCN(C(=O)c5ccc(OC(F)(F)F)cc5N)CC4)ncnc3c2)CC1 [BAY-885]
inactive: [1] 104% | [2] 103% | [3] 104% | [4] 105% | [5] 88%
